Measurements as given in patent EP3521435A1, “A HIGH STRINGENCY SELECTION SYSTEM FOR PROTEIN EXPRESSION IN PROLINE-AUXOTROPHIC CELLS” (Bayer AG, priority 2018, dated 2019).

Tested on: CHO-K1 cells
Assay: Batch fermentation in shake flasks of human IgG1 expressing stable cell populations (Poros A-HPLC titer, viable cell density, viability)
Type: cell-based, Chinese hamster
Conditions: pJF1576; for Productivity profile: human IgG1
Description: To efficiently test the impact of different procedures on improving selection stringency, experimental testing in stable cell populations was performed. As test molecules, enhanced green fluorescent protein (GFP) as well as a human IgG1 were chosen. CHO-K1 cells adapted to growth in suspension in defined medium were obtained from SAFC and cultivated in EX-CELL CD CHO Fusion medium (SAFC 14365C). Custom-made EX-CELL CD CHO Fusion medium without L-Proline (Pro) and without L-Ornithine (Orn) ("proline-free medium") was obtained from SAFC. The expression vector system was based on modified versions of "CET 1019 AS-puro-SceI" and "CET 1019 AD-puro-SceI" for GFP and human IgG1, respectively, from Merck-Millipore, containing the Puromycin selection marker (Puromycin N-acetyl-transferase) known to exert a high selection stringency. To minimize variations in cell populations derived from using different transfections or different vectors, the first series of experiments were conducted using vectors into which a P5CS expression cassette was cloned upstream of a UCOE element, in addition to the Puromycin selection marker present downstream of a gene of interest. This way, it was possible to pool different transfections using the same vector to obtain a common starting point, and split the mixture according to different selection conditions, minimizing any variations that are not due to selection conditions themselves. Expression of long and short isoform of murine P5CS (Protein: Delta-1-pyrroline-5-carboxylate synthase; Gene: Aldh18a1; UniProtKB accession number: Q9Z110-1 & Q9Z110-2) was driven by a SV40 promoter. A SV40 polyadenylation sequence was used at the 3' end of the gene. More details can be found in Table 1. Typically, CHO cells were cultivated in EX-CELL CD CHO Fusion medium containing 6 mM GlutaMAX (Thermo Fisher, 35050-38) ("CD-Fusion medium") at 37 °C with 5% CO2. Cells were grown to logarithmic phase under shaking conditions for transfections. 1e7 cells/cuvette were transfected using nucleofection (Amaxa Nucleofector II, following the manufacturer's recommendations) with 5 µg of linearized DNA. After transfection, cells were taken up in 1 ml medium and transferred into 1 well of a 6 well microtiter plate (MTP) already containing 1 ml medium. The cells were incubated for 24 h without shaking, after which 9 ml medium were added and cells were washed (either in standard or proline-free medium). Multiple transfections were pooled, if applicable. Cells were adjusted to 2e5 viable cells/ml and 10 ml were transferred to T-25 flasks. Reference cell populations were selected using 10 µg/ml Puromycin in CD-Fusion medium. For P5CS-based selection, EX-CELL CD CHO Fusion medium (custom-made, SAFC) containing 6 mM GlutaMAX without proline and without ornithine was used ("proline-free" or "CD-Fusion w/o Pro" medium), with or without additional selection pressure.
Cell viability of the different populations was monitored over time. As soon as cell populations appeared to recover from selection pressure, cells were transferred to Shake Flask or TubeSpins for expansion in suspension under shaking conditions. Subsequently, stable cell populations transfected with IgG were seeded at 2e5 viable cells/ml for batch fermentation without selection pressure (i.e. standard CD-Fusion medium containing proline and no other selective agents). The cells were cultivated for 5-10 days, viable cell densities and productivity were monitored over time. IgG titers were determined using Poros A-HPLC method. Typically, final batch titers were recorded at a time point at which majority of cultures had around 70% viability. Stable cell populations transfected with GFP vector were subjected to analysis by flow cytometry using Guava easyCyte 8HT Benchtop Flow Cytometer (Millipore). 250 µl of cell culture were transferred to 96 MTP and washed with PBS. Dead cells were excluded from analysis using propidium iodide (PI). […]

[1] = Day 4 after inoculation, selected in CD-Fusion w/o Pro + 0.4 mM DHP, non-selecting conditions
[2] = Day 5 after inoculation, selected in CD-Fusion w/o Pro + 0.05 mM DHP, selective conditions
[3] = Day 5 after inoculation, selected in CD-Fusion w/o Pro + 0.1 mM DHP, selective conditions
[4] = Day 5 after inoculation, selected in CD-Fusion w/o Pro + 0.2 mM DHP, selective conditions
[5] = Day 5 after inoculation, selected in CD-Fusion w/o Pro + 0.4 mM DHP, selective conditions
[6] = Day 7 after inoculation, selected in CD-Fusion w/o Pro + 0.05 mM DHP, non-selecting conditions
[7] = Day 7 after inoculation, selected in CD-Fusion w/o Pro + 0.05 mM DHP, selective conditions
[8] = Day 7 after inoculation, selected in CD-Fusion w/o Pro + 0.1 mM DHP, non-selecting conditions
[9] = Day 7 after inoculation, selected in CD-Fusion w/o Pro + 0.1 mM DHP, selective conditions
[10] = Day 7 after inoculation, selected in CD-Fusion w/o Pro + 0.2 mM DHP, non-selecting conditions
[11] = Day 7 after inoculation, selected in CD-Fusion w/o Pro + 0.2 mM DHP, selective conditions
[12] = Day 7 after inoculation, selected in CD-Fusion w/o Pro + 0.4 mM DHP, non-selecting conditions
[13] = Day 7 after inoculation, selected in CD-Fusion w/o Pro + 0.4 mM DHP, selective conditions
[14] = Day 9 after inoculation, selected in CD-Fusion w/o Pro + 0.05 mM DHP, non-selecting conditions
[15] = Day 9 after inoculation, selected in CD-Fusion w/o Pro + 0.1 mM DHP, non-selecting conditions
[16] = Day 9 after inoculation, selected in CD-Fusion w/o Pro + 0.2 mM DHP, non-selecting conditions
[17] = Day 9 after inoculation, selected in CD-Fusion w/o Pro + 0.4 mM DHP, non-selecting conditions

O=C(O)[C@@H]1C=CCN1 [DHP, 3,4-Dehydro-L-Proline]
Viable cell density profile (Day 4 after inoculation, selected in CD-Fusion w/o Pro + 0.2 mM DHP, non-selecting conditions): 5,2E+06 VCD/ml | Viability profile [1]: 99.6% | Viable cell density profile [1]: 6,1E+06 VCD/ml | Viability profile [2]: 96.4% | Viable cell density profile [2]: 9.5E+06 VCD/ml | Viability profile [3]: 97.5% | Viable cell density profile [3]: 1.2E+07 VCD/ml | Viability profile [4]: 98.9% | Viable cell density profile [4]: 6.9E+06 VCD/ml | Viability profile [5]: 96.1% | Viable cell density profile [5]: 1.1E+07 VCD/ml | Productivity profile [6]: 48.6 mg/L | Productivity profile [7]: 166.2 mg/L | Productivity profile [8]: 104.4 mg/L | Productivity profile [9]: 125.8 mg/L | Productivity profile [10]: 87.4 mg/L | Productivity profile [11]: 179.7 mg/L | Productivity profile [12]: 116.4 mg/L | Productivity profile [13]: 133.4 mg/L | Viability profile [6]: 98.6% | Viable cell density profile [6]: 1,0E+07 VCD/ml | Viability profile [7]: 45.3% | Viable cell density profile [7]: 4.6E+06 VCD/ml | Viability profile [8]: 95.6% | Viable cell density profile [8]: 7,9E+06 VCD/ml | Viability profile [9]: 32.2% | Viable cell density profile [9]: 4.0E+06 VCD/ml | Viability profile [10]: 97.4% | Viable cell density profile [10]: 9,6E+06 VCD/ml | Viability profile [11]: 93.2% | Viable cell density profile [11]: 9.1E+06 VCD/ml | Viability profile [12]: 98.1% | Viable cell density profile [12]: 1,1E+07 VCD/ml | Viability profile [13]: 56.1% | Viable cell density profile [13]: 6.9E+06 VCD/ml | Productivity profile [14]: 115.5 mg/L | Productivity profile [15]: 127.1 mg/L | Productivity profile [16]: 153.7 mg/L | Productivity profile [17]: 164.7 mg/L | Viability profile [14]: 19.5% | Viable cell density profile [14]: 2,5E+06 VCD/ml | Viability profile [15]: 5.1% | Viable cell density profile [15]: 6,4E+05 VCD/ml | Viability profile [16]: 18.7% | Viable cell density profile [16]: 2,2E+06 VCD/ml | Viability profile [17]: 21.7% | Viable cell density profile [17]: 3,1E+06 VCD/ml
